Key:
[1] = test system: p-IKKα levels in L363 (NIK translocated multiple myeloma) cells; assay: Effect of compounds on p-IKKα levels in L363 cells (AlphaLISA SureFire Ultra); assay type: cell-based; conditions: Homo sapiens, L-363; L363 cells, BAFF stimulated, MG132, 6 h; average of values; read-out: Assay 2 IC50
How it was run: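 L363 myeloma cells were BAFF-stimulated (250 ng/ml) overnight in DMEM/0.5% BSA, then exposed 6 h at 37° C to compound (11-point 1:3 series, 0.3% DMSO) with BAFF plus 10 uM MG132. p-IKKα (Ser 176/180) was read by AlphaLISA SureFire Ultra in lysates. IC50 came from sigmoidal fits normalized to stimulated and unstimulated controls.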

[2] = target: Recombinant Human NF-Kappab-Inducing Kinase (NIK/MAP3K14) (Homo sapiens, UniProt Q99558); assay: Inhibition of auto-phosphorylation of recombinant human NIK/MAP3K14 (AlphaScreen); assay type: biochemical; conditions: NIK/MAP3K14 auto-phosphorylation, 5 microM ATP, 1 nM enzyme, 2 h at 25° C.; average of values; read-out: Assay 1 IC50
How it was run: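 GST-tagged NIK (1 nM) auto-phosphorylation with 5 µM ATP in Tris pH 7.5/MgCl2 buffer, 0.7% DMSO, 2 h at 25 °C. Phospho-IKK Ser176/180 antibody detected by AlphaScreen beads. Signal normalized to full-enzyme and no-ATP controls; IC50 from sigmoidal fit of % inhibition vs log concentration.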

Recombinant Human NF-Kappab-Inducing Kinase (NIK/MAP3K14), sequence (Q99558 whole entry): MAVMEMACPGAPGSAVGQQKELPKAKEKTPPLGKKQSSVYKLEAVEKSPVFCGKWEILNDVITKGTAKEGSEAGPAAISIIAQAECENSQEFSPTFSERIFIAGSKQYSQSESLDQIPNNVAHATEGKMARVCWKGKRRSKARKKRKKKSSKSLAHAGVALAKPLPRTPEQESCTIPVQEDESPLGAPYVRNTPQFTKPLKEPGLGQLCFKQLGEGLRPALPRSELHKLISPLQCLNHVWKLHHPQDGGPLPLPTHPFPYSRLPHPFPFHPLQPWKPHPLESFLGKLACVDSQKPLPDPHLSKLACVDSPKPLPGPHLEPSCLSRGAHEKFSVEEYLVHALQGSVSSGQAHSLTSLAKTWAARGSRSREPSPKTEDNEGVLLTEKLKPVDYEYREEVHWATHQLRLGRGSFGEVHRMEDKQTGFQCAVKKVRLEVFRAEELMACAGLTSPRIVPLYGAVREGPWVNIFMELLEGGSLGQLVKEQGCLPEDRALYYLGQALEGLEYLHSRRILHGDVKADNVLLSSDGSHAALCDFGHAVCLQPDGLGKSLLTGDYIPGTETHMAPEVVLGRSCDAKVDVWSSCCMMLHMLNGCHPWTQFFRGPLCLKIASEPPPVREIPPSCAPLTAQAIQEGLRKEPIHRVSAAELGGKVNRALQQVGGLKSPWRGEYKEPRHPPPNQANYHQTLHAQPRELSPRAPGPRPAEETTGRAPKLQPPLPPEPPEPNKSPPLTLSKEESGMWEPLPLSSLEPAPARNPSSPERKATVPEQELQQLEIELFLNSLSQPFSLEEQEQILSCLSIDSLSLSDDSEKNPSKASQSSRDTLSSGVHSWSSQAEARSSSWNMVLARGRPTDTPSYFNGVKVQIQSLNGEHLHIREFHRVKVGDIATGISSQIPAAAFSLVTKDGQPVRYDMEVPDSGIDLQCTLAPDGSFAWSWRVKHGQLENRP

CN1CC[C@@](O)(c2cc(-c3cccc(-c4cc5c[nH]nc5cn4)c3)no2)C1=O [Example 75, (R)-3-(3-(3-(2H-pyrazolo[3,4-c]pyridin-5-yl)phenyl)isoxazol-5-yl)-3-hydroxy-1-methylpyrrolidin-2-one]
IC50 [1]: > 501 nM | IC50 [2]: 100 to 500 nM

COc1cc(-c2cccc(-c3cc([C@]4(O)CCN(C)C4=O)on3)c2)cc2c1cnn2C [Example 76, (R)-3-Hydroxy-3-(3-(3-(4-methoxy-1-methyl-1H-indazol-6-yl)phenyl)isoxazol-5-yl)-1-methylpyrrolidin-2-one]
IC50 [1]: > 501 nM | IC50 [2]: 100 to 500 nM

CN1CC[C@@](O)(c2cc(-c3cccc(-c4cccc5[nH]ccc45)c3)no2)C1=O [Example 77, (R)-3-(3-(3-(1H-Indol-4-yl)phenyl)isoxazol-5-yl)-3-hydroxy-1-methylpyrrolidin-2-one]
IC50 [1]: > 501 nM | IC50 [2]: > 501 nM

CN1CC[C@@](O)(c2cc(-c3cccc(-c4ccc5cnn(C)c5n4)c3)no2)C1=O [Example 78, (R)-3-Hydroxy-1-methyl-3-(3-(3-(1-methyl-1H-pyrazolo[3,4-b]pyridin-6-yl)phenyl)isoxazol-5-yl)pyrrolidin-2-one]
IC50 [1]: > 501 nM | IC50 [2]: 100 to 500 nM

Cc1cn2cc(-c3cccc(-c4cc([C@]5(O)CCN(C)C5=O)on4)c3)ccc2n1 [Example 79, (R)-3-Hydroxy-1-methyl-3-(3-(3-(2-methylimidazo[1,2-a]pyridin-6-yl)phenyl)isoxazol-5-yl)pyrrolidin-2-one]
IC50 [1]: > 501 nM | IC50 [2]: > 501 nM

CN1CC[C@@](O)(c2cc(-c3cccc(-c4ccc5c(c4)N(C)C(=O)CN5)c3)no2)C1=O [Example 80, (R)-7-(3-(5-(3-Hydroxy-1-methyl-2-oxopyrrolidin-3-yl)isoxazol-3-yl)phenyl)-1-methyl-3,4-dihydroquinoxalin-2(1H)-one]
IC50 [1]: > 501 nM | IC50 [2]: > 501 nM

COc1cc2c(cc1-c1cccc(-c3cc([C@]4(O)CCN(C)C4=O)on3)c1)COC2 [Example 81, (R)-3-Hydroxy-3-(3-(3-(6-methoxy-1,3-dihydroisobenzofuran-5-yl)phenyl)isoxazol-5-yl)-1-methylpyrrolidin-2-one]
IC50 [1]: > 501 nM | IC50 [2]: > 501 nM

CN1CC[C@@](O)(c2cc(-c3cccc(-c4cccc5c(=O)[nH]ccc45)c3)no2)C1=O [Example 82, (R)-5-(3-(5-(3-Hydroxy-1-methyl-2-oxopyrrolidin-3-yl)isoxazol-3-yl)phenyl)isoquinolin-1 (2H)-one]
IC50 [1]: > 501 nM | IC50 [2]: > 501 nM

CN1CC[C@@](O)(c2cc(-c3cccc(-c4cc5[nH]ncc5cn4)c3)no2)C1=O [Example 83, (R)-3-(3-(3-(1H-pyrazolo[4,3-c]pyridin-6-yl)phenyl)isoxazol-5-yl)-3-hydroxy-1-methylpyrrolidin-2-one]
IC50 [1]: > 501 nM | IC50 [2]: > 501 nM

Cc1n[nH]c2nc(-c3cccc(-c4cc([C@]5(O)CCN(C)C5=O)on4)c3)cc(C(N)=O)c12 [Example 84, (R)-6-(3-(5-(3-Hydroxy-1-methyl-2-oxopyrrolidin-3-yl)isoxazol-3-yl)phenyl)-3-methyl-1H-pyrazolo[3,4-b]pyridine-4-carboxamide]
IC50 [1]: > 501 nM | IC50 [2]: > 501 nM

CN1CC[C@@](O)(c2cc(-c3cccc(-c4cc(C5CC5)nc(C(N)=O)n4)c3)no2)C1=O [Example 85, (R)-4-Cyclopropyl-6-(3-(5-(3-hydroxy-1-methyl-2-oxopyrrolidin-3-yl)isoxazol-3-yl)phenyl)pyrimidine-2-carboxamide]
IC50 [1]: > 501 nM | IC50 [2]: < 100 nM

CN1CC[C@@](O)(c2cc(-c3cccc(-c4cccc5cnc(N)nc45)c3)no2)C1=O [Example 86, (R)-3-(3-(3-(2-Aminoquinazolin-8-yl)phenyl)isoxazol-5-yl)-3-hydroxy-1-methylpyrrolidin-2-one]
IC50 [1]: > 501 nM | IC50 [2]: < 100 nM

COc1ccc(-c2cccc(-c3cc([C@]4(O)CCN(C)C4=O)on3)c2)nc1C(N)=O [Example 87, (R)-6-(3-(5-(3-Hydroxy-1-methyl-2-oxopyrrolidin-3-yl)isoxazol-3-yl)phenyl)-3-methoxypicolinamide]
IC50 [1]: > 501 nM | IC50 [2]: > 501 nM

CN1CC[C@@](O)(c2cc(-c3cccc(-c4cc(C5CC5)c(N)c(C(N)=O)n4)c3)no2)C1=O [Example 88, (R)-3-Amino-4-cyclopropyl-6-(3-(5-(3-hydroxy-1-methyl-2-oxopyrrolidin-3-yl)isoxazol-3-yl)phenyl)picolinamide]
IC50 [1]: < 100 nM | IC50 [2]: < 100 nM

CN1CC[C@@](O)(c2cc(-c3cccc(-c4nc(C(N)=O)c(N)cc4F)c3)no2)C1=O [Example 89, (R)-3-Amino-5-fluoro-6-(3-(5-(3-hydroxy-1-methyl-2-oxopyrrolidin-3-yl)isoxazol-3-yl)phenyl)picolinamide]
IC50 [1]: 100 to 500 nM | IC50 [2]: < 100 nM

CCn1cnc2c(C(N)=O)nc(-c3cccc(-c4cc([C@]5(O)CCN(C)C5=O)on4)c3)cc21 [Example 90, (R)-1-Ethyl-6-(3-(5-(3-hydroxy-1-methyl-2-oxopyrrolidin-3-yl)isoxazol-3-yl)phenyl)-1H-imidazo[4,5-c]pyridine-4-carboxamide]
IC50 [1]: > 501 nM | IC50 [2]: 100 to 500 nM

CN1CC[C@@](O)(c2cc(-c3cccc(-c4cc(C(F)(F)F)cc(C(N)=O)n4)c3)no2)C1=O [Example 91, (R)-6-(3-(5-(3-Hydroxy-1-methyl-2-oxopyrrolidin-3-yl)isoxazol-3-yl)phenyl)-4-(trifluoromethyl)picolinamide]
IC50 [1]: 100 to 500 nM | IC50 [2]: < 100 nM

CN1CC[C@@](O)(c2cc(-c3cccc(-c4cn5cccc(C(N)=O)c5n4)c3)no2)C1=O [Example 92, (R)-2-(3-(5-(3-Hydroxy-1-methyl-2-oxopyrrolidin-3-yl)isoxazol-3-yl)phenyl) imidazo[1,2-a]pyridine-8-carboxamide]
IC50 [1]: > 501 nM | IC50 [2]: 100 to 500 nM

CN1CC[C@@](O)(c2cc(-c3cccc(-c4nc(C(N)=O)n5c4CCCC5)c3)no2)C1=O [Example 93, (R)-1-(3-(5-(3-Hydroxy-1-methyl-2-oxopyrrolidin-3-yl)isoxazol-3-yl)phenyl)-5,6,7,8-tetrahydroimidazo[1,5-a]pyridine-3-carboxamide]
IC50 [1]: < 100 nM | IC50 [2]: < 100 nM

CN1CC[C@@](O)(c2cc(-c3cccc(-c4cc(C(N)=O)nc5[nH]ccc45)c3)no2)C1=O [Example 94, (R)-4-(3-(5-(3-Hydroxy-1-methyl-2-oxopyrrolidin-3-yl)isoxazol-3-yl)phenyl)-1H-pyrrolo[2,3-b]pyridine-6-carboxamide]
IC50 [1]: > 501 nM | IC50 [2]: > 501 nM

CN1CC[C@@](O)(c2cc(-c3cccc(-n4nc(C(=O)O)c5c4CCCC5)c3)no2)C1=O [Example 95, (R)-1-(3-(5-(3-Hydroxy-1-methyl-2-oxopyrrolidin-3-yl)isoxazol-3-yl)phenyl)-4,5,6,7-tetrahydro-1H-indazole-3-carboxylic acid]
IC50 [1]: > 501 nM | IC50 [2]: > 501 nM

CN1CC[C@@](O)(c2cc(-c3cccc(-c4cc(N)c5nc[nH]c(=O)c5n4)c3)no2)C1=O [Example 96, (R)-8-Amino-6-(3-(5-(3-hydroxy-1-methyl-2-oxopyrrolidin-3-yl)isoxazol-3-yl)phenyl)pyrido[3,2-d]pyrimidin-4(3H)-one]
IC50 [1]: > 501 nM | IC50 [2]: < 100 nM

Reference: patent publication US20250282785A1, “PYRROLIDINONE DERIVATIVES AS INHIBITORS OF NF KAPPA B INDUCING KINASE” (priority 2022, published 2025)
